SMILES strings stand for the structures. Converted amounts (≈) assume the structure as drawn. Read-outs that look alike come from different tables or passages of the source. Where only a bound is given, the exact number is not on record here.

Data set [1] can be described thus: Solubility of literature quinones in aqueous electrolytes, reported or estimated from references.
Experimental: However, such value can be roughly estimated in the case of ref [4] by using equilibration tests reported in the figure 2e of this publication for PTO molecules.
In the table, (a) is for Estimated at mAM/Vel= 3/0.5 mg/ml and (b) vs. the maximum observed capacity (c) Estimated from Fig2e ref [4], that is 3.6% capacity loss upon 24h rest (OCV) in reduced state.
For data set [2] the following is noted: cited from earlier work.
The conditions of data set [3]: for saturation limit in comparison with compound 2 (2,5 DTBHQ) / saturation limit: 1 week at room temperature; for saturation limit: argon.
A further data set in a line: physchem. The conditions noted are these: water.
Setting [4] is: 1.25 M Zn(CH3COO)2, pH 4-5, 10080 min.

As for `NC1=C(N)C(=O)C(N)=C(N)C1=O` [TABQ], in data set [1] (1M ZnSO4, pH 4-5, ref [1]), the “Solubility factor vs. 2,5 DTBHQ” value is on record as ~100. The Solubility oxidized state in data set [2] (1M ZnSO4, pH 4-5, ref [1]) is given as 1.7 mmol/L (≈ 286 µg/mL).

Turning to `O=C1C(O)=C(O)C(=O)C(O)=C1O` [THBQ], the “Solubility factor vs. 2,5 DTBHQ” value in data set [1] (1M ZnSO4, pH 4-5, ref [1]) was ~100. The Solubility oxidized state in data set [2] (1M ZnSO4, pH 4-5, ref [1]) is recorded as 3.4 mmol/L (≈ 585 µg/mL).

Turning to `O=C1C(Cl)=C(Cl)C(=O)C(Cl)=C1Cl` [p-TCBQ], the Solubility oxidized state entry in data set [3] (pH 7) was “Slightly soluble”.

`CC(C)(C)c1cc(O)ccc1O` [compound 8] returned a Solubility reduced state in data set [3] (setting [4]) of 20400 µM (≈ 3390 µg/mL). Besides, in data set [3] (acetate electrolytes), the “saturation limit in comparison with compound 2 (2,5 DTBHQ)” value was ~100 times and the saturation limit is 20.4 mM/L.

For the compound `O=C1C(=O)C(Cl)=C(Cl)C(Cl)=C1Cl` [o-TCBQ], the “Solubility factor vs. 2,5 DTBHQ” value in data set [1] (1M ZnSO4, pH 4-5, ref [1]) is ~100. For the same compound, in data set [2] (1M ZnSO4, pH 4-5, ref [1]), the Solubility oxidized state was 2.3 mmol/L (≈ 566 µg/mL).

Consider `Oc1ccc(O)cc1` [1,4-benzohydroquinone], for which the “solubility in water compared with 1,4-benzoquinone” value in data set [2] (water, background statement) was “six times more soluble”.

`O=c1c(=O)c2cccc3c2-c2c1cccc2c(=O)c3=O` [PTO]: the “Solubility factor vs. 2,5 DTBHQ” value in data set [1] (2M ZnSO4, pH 4-5, ref [4]) was >11; in data set [1] (2.5M Li2SO4, pH 7, ref [5]), > 10000. The Solubility reduced state result in data set [1] (4.4M H2SO4, pH 0, ref [5], presumed) is “Presumed Not soluble”. Besides, the “maximum solubility relative to compound 2 (2,5 DTBHQ)” value in data set [1] (estimated from ref [4], reduced state) is recorded as “approx. 11 times”. In addition, the Solubility oxidized state result in data set [2] (2.5M Li2SO4, pH 7, ref [5]) is listed as “Soluble (Fig. S21)”; in data set [2] (4.4M H2SO4, pH 0, ref [5]), 0.0047 (Fig. S18) mmol/L.

As for `CC(C)(C)C1=CC(=O)C(C(C)(C)C)=CC1=O` [compound 1], the thermodynamic solubility at 1 week in “physchem” worked out at 5.7 µg/mL (≈ 25.9 µM). In data set [3] (setting [4]), this compound yielded a Solubility oxidized state of 26 µM (≈ 5.73 µg/mL) and a Solubility reduced state of 204 µM (≈ 44.9 µg/mL). Further, in data set [3] (acetate electrolytes), the “saturation limit in comparison with compound 2 (2,5 DTBHQ)” value is recorded as “nearly ten times lower”. Besides, in data set [3] (acetic acid/potassium acetate pH 4.8, acetic acid/zinc acetate pH 4.5, zinc acetate 1.25 M pH 4.2), the saturation limit is 26.16 µmol/L.

The values above are taken from patent publication EP4475229A1, “QUINONE-TYPE MOLECULES FOR ZINC-ION AQUEOUS BATTERIES” (Centre National de la Recherche Scientifique, priority 2023, dated 2024).
